Test results reported in patent US12630498B2 (Genzyme Corporation, priority 2019, dated 2026).
pEC50: −log10 of the molar value.

Target: T1, human Cystic Fibrosis Transmembrane Conductance Regulator (CFTR) harboring the ΔF508 mutation (Homo sapiens, UniProt P13569, DEL508-508)
T1 construct: expressed in transfected cells; host or cells: H441 carcinoma line (G418-selected)
Assay: H441 cell ΔF508-CFTR-HRP cell surface assay (Emax and EC50)
Type: cell-based
Details: for Emax: NCI-H441, NA = Not active
Description: Example 315: H441 Cell Emax and EC50 Two cell lines were used, the H441 carcinoma line and the CFHBE41o- (41o-) human bronchial epithelial line. Both cell lines expressed human Cystic Fibrosis Transmembrane Conductance Regulator (CFTR) harboring the ΔF508 mutation and with an in-frame fusion in CFTR extracellular loop 4 of Horse Radish Peroxidase (HRP) under control of the CMV promoter. In the presence of the HRP tag, ΔF508-CFTR transported to the cell surface was detectable upon addition of an HRP substrate (Luminata Forte). Both cell types were cultivated at 37° C. with CO2. […] For both cell types, the medium was changed every other day unless the culture was at low % confluence. Cells were used for the assays at 75% confluence. To a polypropylene (PP) 384-well plate, 15 pls DMSO was added to all wells in columns 1-22 and 24 (low Control). 15 μls of 260 μM VX809 (Lumacaftor), Selleckchem […], was added to column 23 wells (high Control). 15 pls of 10 mM test compound or VX809 (control) were added to wells of row A. Serial dilutions of Row A compound were performed 2×15 pls in rows A through 0 (15-point). A PP, 384-well plate containing the appropriate cell culture medium was prepared for each assay plate with 100 pls per well. For the doxycycline-induced 41o-cells, doxycycline for both the assay plate and the medium dilution plate was added at 0.0005 mg/ml to the medium. Both cell lines were plated for the assay at 30 pls per 384-well at 3.4×10 e^5 cells per ml ( 10K cells/well). H441 cells were plated on opaque, white, Corning plate 3704. 41o-cells were plated on collagen-coated opaque, white, Corning plate 356665. For 41o-cells, doxycycline was added to the medium. Using FX (Beckman) protocol, 10 pls diluted compound or medium was added per well to the Assay Plate as: 2 pls DMSO Dilution plate well was diluted in 100 pls of the Medium Dilution Plate well, mixed, and 10 pls was transferred to the Assay Plate. The final assay dilution series was 24.5, 12.3, 6.1, 3.1, 1.5, 0.8, 0.4, 0.2, 0.1, 0.05, 0.02, 0.01, 0.006, 0.003, 0.001 and 0 μM. The 41o-assay plates were incubated at 37° C. w/CO2, the H441 assay plates were incubated at 27° C. w/CO2, each overnight for two nights. After being brought to room temperature, the assay plate liquid was removed. 30 uls of Luminata Forte (Millipore ELLUF0100) was added per well and incubated at room temperature for 10 min. The plates were then read on a Topcount, protocol LumiMatti (CPS, luminescence). The data was analyzed for % of maximum, maximum VX809 signal, and EC50 using Pearl and SPEED tools.

T1 sequence (P13569 with tags, fused parts or gaps DEL508-508): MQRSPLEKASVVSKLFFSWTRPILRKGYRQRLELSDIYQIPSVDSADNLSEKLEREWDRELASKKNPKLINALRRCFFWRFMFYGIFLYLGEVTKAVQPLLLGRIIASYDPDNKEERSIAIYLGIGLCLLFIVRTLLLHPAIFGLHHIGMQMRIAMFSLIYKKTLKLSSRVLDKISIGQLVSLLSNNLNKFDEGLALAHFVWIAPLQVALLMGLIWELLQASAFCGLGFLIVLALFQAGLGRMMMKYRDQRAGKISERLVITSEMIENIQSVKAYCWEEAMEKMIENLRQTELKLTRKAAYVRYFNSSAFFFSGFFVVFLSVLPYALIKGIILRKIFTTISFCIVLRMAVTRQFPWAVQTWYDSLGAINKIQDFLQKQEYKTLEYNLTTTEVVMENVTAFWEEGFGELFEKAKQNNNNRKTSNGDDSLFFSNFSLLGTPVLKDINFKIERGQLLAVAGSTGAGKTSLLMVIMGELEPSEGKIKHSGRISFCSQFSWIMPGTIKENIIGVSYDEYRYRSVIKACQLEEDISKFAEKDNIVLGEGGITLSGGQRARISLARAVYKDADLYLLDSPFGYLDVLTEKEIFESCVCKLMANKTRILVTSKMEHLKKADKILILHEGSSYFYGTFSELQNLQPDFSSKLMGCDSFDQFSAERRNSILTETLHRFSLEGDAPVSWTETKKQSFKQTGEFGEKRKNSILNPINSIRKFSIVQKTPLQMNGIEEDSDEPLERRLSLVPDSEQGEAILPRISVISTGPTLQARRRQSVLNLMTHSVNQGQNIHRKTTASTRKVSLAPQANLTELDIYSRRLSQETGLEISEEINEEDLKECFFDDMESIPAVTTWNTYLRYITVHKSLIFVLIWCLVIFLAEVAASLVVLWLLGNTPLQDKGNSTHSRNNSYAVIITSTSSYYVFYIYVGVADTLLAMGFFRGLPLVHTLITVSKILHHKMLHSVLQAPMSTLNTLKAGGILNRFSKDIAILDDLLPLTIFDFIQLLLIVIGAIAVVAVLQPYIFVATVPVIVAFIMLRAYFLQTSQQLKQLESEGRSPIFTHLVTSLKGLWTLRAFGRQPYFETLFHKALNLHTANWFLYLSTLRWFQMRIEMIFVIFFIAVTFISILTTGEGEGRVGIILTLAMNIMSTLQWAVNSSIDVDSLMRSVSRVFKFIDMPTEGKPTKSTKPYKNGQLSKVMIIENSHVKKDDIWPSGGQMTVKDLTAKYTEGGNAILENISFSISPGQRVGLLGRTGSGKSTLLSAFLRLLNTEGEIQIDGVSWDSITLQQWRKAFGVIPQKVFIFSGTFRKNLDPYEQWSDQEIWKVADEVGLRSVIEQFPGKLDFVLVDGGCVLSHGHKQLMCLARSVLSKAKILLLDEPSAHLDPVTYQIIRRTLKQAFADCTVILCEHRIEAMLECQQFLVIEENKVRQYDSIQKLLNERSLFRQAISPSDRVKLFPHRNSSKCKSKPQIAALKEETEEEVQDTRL

Row | pEC50 | Emax [%] | Compound
1 | 5.15 | 17.9 | O=C(N[C@@H](Cc1ccc(C(F)(F)F)cc1)C(=O)O)c1ccc2ccccc2c1OCc1ccc(OC(F)(F)F)cc1 [Example 190, (S)-2-(1-((4-(trifluoromethoxy)benzyl)oxy)-2-naphthamido)-3-(4-(trifluoromethyl)phenyl)propanoic Acid]
2 | 4.64 | 19.8 | CCC(C)(C)[C@H](NC(=O)c1ccc2ccccc2c1OCc1ccc(S(C)(=O)=O)cc1)C(=O)O [Example 53, (S)-3,3-dimethyl-2-(1-((4-(methylsulfonyl)benzyl)oxy)-2-naphthamido)pentanoic Acid]
3 | – | 4 | CC(Oc1c(C(=O)N[C@@H](Cc2ccccc2)C(=O)O)ccc2ccccc12)c1ccc(Br)cc1 (stereo partly drawn) [Example 123, (1-(1-(4-bromophenyl)ethoxy)-2-naphthoyl)-L-phenylalanine]
4 | 4.94 | 70.8 | Nc1ccc2c(OCc3ccc(C(F)(F)F)cc3)c(C(=O)N[C@H](C(=O)O)C3CCCC3)ccc2c1 [Example 187, (S)-2-(6-amino-1-((4-(trifluoromethyl)benzyl)oxy)-2-naphthamido)-2-cyclopentylacetic Acid]
5 | – | 38.4 | CC(C)(S[C@@H]1C[C@@H]2CC[C@H]1C2)[C@H](NC(=O)c1ccc2ccccc2c1OCc1ccc(S(C)(=O)=O)cc1)C(=O)O [Example 176, (R)-3-(((1S,2R,4R)-bicyclo[2.2.1]heptan-2-yl)thio)-3-methyl-2-(1-((4-(methylsulfonyl)benzyl)oxy)-2-naphthamido)butanoic Acid]
6 | 6.40 | 71 | O=C(N[C@H](C(=O)O)C(c1ccccc1)c1ccccc1)c1ccc2cc(F)ccc2c1OCc1ccc(Cl)c(Cl)c1 [Example 209, (S)-2-(1-((3,4-dichlorobenzyl)oxy)-6-fluoro-2-naphthamido)-3,3-diphenylpropanoic Acid]
7 | 6.52 | 327 | CC(C)(C)[C@H](NC(=O)c1ccc2ccc(C(F)(F)F)cc2c1OCc1ccc(C(F)(F)F)cc1)C(=O)O [compound 293, (S)-3,3-dimethyl-2-(7-(trifluoromethyl)-1-((4-(trifluoromethyl)benzyl)oxy)-2-naphthamido)butanoic Acid]
8 | 4.85 | 52.6 | C=CCOc1ccc(C[C@H](NC(=O)c2ccc3ccccc3c2OCc2ccc(C(F)(F)F)cc2)C(=O)O)cc1 [Example 92, (S)-3-(4-(allyloxy)phenyl)-2-(1-((4-(trifluoromethyl)benzyl)oxy)-2-naphthamido)propanoic Acid]
9 | 5.70 | 57.5 | CC1([C@H](NC(=O)c2ccc3cc(F)ccc3c2OCc2ccc(OC(F)(F)F)cc2)C(=O)O)CC1 [Example 30, (S)-2-(6-fluoro-1-((4-(trifluoromethoxy)benzyl)oxy)-2-naphthamido)-2-(1-methylcyclopropyl)acetic Acid]
10 | – | 14 | NC12CCC(C(NC(=O)c3ccc4cc(F)ccc4c3OCc3ccc(C(F)(F)F)cc3)C(=O)O)(CC1)CC2 (stereo not drawn) [Example 185, 2-(4-aminobicyclo[2.2.2]octan-1-yl)-2-(6-fluoro-1-((4-(trifluoromethyl)benzyl)oxy)-2-naphthamido)acetic Acid]
11 | – | 27.8 | CC(C)(C)[C@H](NC(=O)c1ccc2ccccc2c1OCC1CCC(CO)CC1)C(=O)O (stereo partly drawn) [Example 29, (S)-2-(1-((4-(hydroxymethyl)cyclohexyl)methoxy)-2-naphthamido)-3,3-dimethylbutanoic Acid]
12 | – | 6 | O=C(N[C@@H](Cc1ccccc1)C(=O)O)c1ccc2ccccc2c1OCc1ccc(Cl)cc1 [Example 98, (1-((4-chlorobenzyl)oxy)-2-naphthoyl)-L-phenylalanine]
13 | 7.00 | 339 | CCC(C)(C)[C@H](NC(=O)c1ccc2c(F)cc(C)cc2c1OCc1ccc(OC(F)(F)F)cc1)C(=O)O [Example 273, (2S)-2-[[5-fluoro-7-methyl-1-[[4-(trifluoromethoxy)phenyl]methoxy]naphthalene-2-carbonyl]amino]-3,3-dimethyl-pentanoic Acid]
